Measurements published in patent US10131649B2, “Bicyclic compounds as pest control agents” (BAYER CROPSCIENCE AKTIENGESELLSCHAFT, priority 2014, dated 2018).
Where two headings read alike, the source gives them in different places.

Legend:
[1] = log P by HPLC on reversed-phase columns (OECD Guideline 117), [a] acidic pH 2.7, [b] neutral pH 7.8; type: physicochemical; details: reversed-phase (C18) HPLC column
Experimental: The log P values were determined in accordance with OECD Guideline 117 (EC Directive 92/69/EEC) by HPLC (high-performance liquid chromatography) using reversed-phase (RP) columns (C18), by the following methods:
[a] The LC-MS determination in the acidic range is carried out at pH 2.7 with 0.1% aqueous formic acid and acetonitrile (contains 0.1% formic acid) as eluents; linear gradient from 10% acetonitrile to 95% acetonitrile.
[b] LC-MS determination in the neutral range is effected at pH 7.8 with 0.001 molar aqueous ammonium hydrogencarbonate solution and acetonitrile as eluents; linear gradient from 10% acetonitrile to 95% acetonitrile.
Calibration is carried out using unbranched alkan-2-ones (having 3 to 16 carbon atoms) with known log P values (log P values determined on the basis of the retention times by linear interpolation between two successive alkanones).

[2] = system: green peach aphid (Myzus persicae); assay: Myzus persicae spray test (Chinese cabbage leaf discs); type: in vivo; details: foliar, 144 h, read-out: efficacy in %
Experimental: Myzus persicae—Spray Test
Solvent: • 78 parts by weight of acetone • 1.5 parts by weight of dimethylformamide
Emulsifier: alkylaryl polyglycol ether
To produce a suitable preparation of active compound, 1 part by weight of active compound is dissolved using the specified parts by weight of solvent and made up with water containing an emulsifier concentration of 1000 ppm until the desired concentration is attained. To produce further test concentrations, the formulation is diluted with emulsifier-containing water.
Discs of Chinese cabbage leaves (Brassica pekinensis) infested by all stages of the green peach aphid (Myzus persicae) are sprayed with an active compound formulation of the desired concentration.
After 6 days, the efficacy in % is determined. 100% means that all the aphids have been killed; 0% means that no aphids have been killed.

[3] = acidic pH 2.7, read-out: logP[a]
[4] = neutral pH 7.8, read-out: logP[b]

Row | Structure (SMILES) | chromatographic logP [1, 3] | chromatographic logP [1, 4] | pest or weed control at 500 g/ha [2] | pest or weed control at 100 g/ha [2] | pest or weed control at 500 g/ha ([2]; application rate 500 g/ha, after 6 days, Chinese cabbage leaf discs, 100% = all aphids killed)
1 | CCn1cc(-c2ccc3nn(-c4cccnc4)cc3c2)cn1 [Example 73] | 1.81 | 1.82 | 90% |  | 
2 | CNC(=O)c1ccc2nn(-c3cncnc3)cc2c1 [Example 31] |  |  | 90% |  | 
3 | O=C(NCC(F)(F)F)c1ccc2nn(-c3cncc(F)c3)cc2c1 [Example 19] |  |  | 90% |  | 
4 | CN(C(=O)CC[S+](C)[O-])c1ccc2nn(-c3cccnc3)cc2c1 (stereo not shown) [Example 123] |  |  | 90% |  | 
5 | CN(C(=O)CC(C)(F)F)c1ccc2nn(-c3cncc(F)c3)cc2c1 [Example 113] |  |  | 90% |  | 
6 | Cc1cc(F)c(-c2ccc3nn(-c4cccnc4)cc3c2)cc1SCC(F)(F)F [Example 49, 5-[2-Fluoro-4-methyl-5-(2,2,2-trifluoroethylsulphanyl)phenyl]-2-(3-pyridyl)indazole] | 4.23 | 4.11 | 90% |  | 
7 | Cc1ccc(-c2ccc3nn(-c4cccnc4)cc3c2)cc1[S+]([O-])CC(F)(F)F (stereo not shown) [Example 53, 5-[4-Methyl-3-(2,2,2-trifluoroethylsulphinyl)phenyl]-2-(3-pyridyl)indazole] | 2.72 | 2.68 | 90% |  | 
8 | CSCCC(=O)N(C)c1ccc2nn(-c3cccnc3)cc2c1 [Example 111] |  |  | 90% |  | 
9 | Cc1ccc(C(=O)N(C)c2ccc3nn(-c4cccnc4)cc3c2)cc1[S+]([O-])CC(F)(F)F (stereo not shown) [Example 115] |  |  | 100% |  | 
10 | c1ccc(-c2ccc3nn(-c4cccnc4)cc3c2)nc1 [Example 59, 5-(2-Pyridyl)-2-(3-pyridyl)indazole] | 1.13 | 1.93 |  | 90% | 
11 | CCSc1cccnc1-c1ccc2nn(-c3cccnc3)cc2c1 [Example 77] | 2.53 | 1.93 | 90% |  | 
12 | Cc1cc(C)c([S+]([O-])CC(F)(F)F)cc1-c1ccc2nn(-c3cccnc3)cc2c1 (stereo not shown) [Example 54, 5-[2,4-Dimethyl-5-(2,2,2-trifluoroethylsulphinyl)phenyl]-2-(3-pyridyl)indazole] | 2.99 | 2.92 | 90% |  | 
13 | CSCn1cc(-c2ccc3nn(-c4cccnc4)cc3c2)cn1 [Example 63] | 2.02 |  | 90% |  | 
14 | CS(=O)(=O)CCNC(=O)c1ccc2nn(-c3cccnc3)cc2c1 [Example 95] | 0.9 | 0.95 | 90% |  | 
15 | CN(C(=O)CC(C)(F)F)c1ccc2nn(-c3cccnc3)cc2c1 [Example 112] |  |  | 100% |  | 
16 | O=C(NCC(F)F)c1ccc2nn(-c3cncnc3)cc2c1 [Example 30] |  |  | 100% |  | 
17 | Clc1cccc(-c2ccc3nn(-c4cccnc4)cc3c2)n1 [Example 61] | 2.79 | 2.8 | 100% |  | 
18 | CN(C)C(=O)c1ccc2nn(-c3cncc(F)c3)cc2c1 [Example 18] |  |  | 90% |  | 
19 | CN(CC(F)F)C(=O)c1ccc2nn(-c3cccnc3)cc2c1 [Example 86] | 1.55 | 1.55 | 100% |  | 
20 | CC(C[S+](C)[O-])C(=O)N(C)c1ccc2nn(-c3cncc(F)c3)cc2c1 (stereo not shown) [Example 122] |  |  | 100% |  | 
21 | CSCC(C)C(=O)N(C)c1ccc2nn(-c3cccnc3)cc2c1 (stereo not shown) [Example 110] |  |  | 90% |  | 
22 | Cc1ccc(NC(=O)c2ccc3nn(-c4cccnc4)cc3c2)cc1SCC(F)(F)F [Example 82] | 3.22 | 3.15 | 90% |  | 
23 | Cn1cc(-n2cc3cc(C(=O)NCC(F)(F)F)ccc3n2)cn1 [Example 37] |  |  | 90% |  | 
24 | CCSc1ccc(-c2ccc3nn(-c4cccnc4)cc3c2)nc1 [Example 80] | 2.87 | 3.03 | 100% |  | 
25 | O=C(c1ccc2nn(-c3cccnc3)cc2c1)N1CCCC1 [Example 88] | 1.43 | 1.48 | 100% |  | 
26 | CN(C(=O)CCS(C)(=O)=O)c1ccc2nn(-c3cncc(F)c3)cc2c1 [Example 128] |  |  | 100% |  | 
27 | CCN(CC)C(=O)c1ccc2nn(-c3cccnc3)cc2c1 [Example 89] | 1.63 | 1.65 | 100% |  | 

Row | Structure (SMILES) | chromatographic logP [1, 3] | chromatographic logP [1, 4] | pest or weed control at 500 g/ha [2] | pest or weed control at 100 g/ha [2] | pest or weed control at 500 g/ha ([2]; application rate 500 g/ha, after 6 days, Chinese cabbage leaf discs, 100% = all aphids killed)
28 | CSCCNC(=O)c1ccc2nn(-c3cccnc3)cc2c1 [Example 85] | 1.45 | 1.5 | 90% |  | 
29 | CN(CC(F)(F)F)C(=O)c1ccc2nn(-c3cccnc3)cc2c1 [Example 90] | 1.84 | 1.87 | 90% |  | 
30 | c1cncc(-n2cc3cc(-c4cn[nH]c4)ccc3n2)c1 [Example 98, 5-(1H-Pyrazol-4-yl)-2-(pyridin-3-yl)-2H-indazole] | 1.27 | 1.3 |  |  | 
31 | Cc1ccnc(-c2ccc3nn(-c4cccnc4)cc3c2)c1 [Example 66] | 0.97 | 2.2 | 90% |  | 
32 | CON(C)C(=O)c1ccc2nn(-c3cncnc3)cc2c1 [Example 32] |  |  | 100% |  | 
33 | CSCCC(=O)N(C)c1ccc2nn(-c3cncc(F)c3)cc2c1 [Example 108] |  |  | 100% |  | 
34 | CN(C)C(=O)c1ccc2nn(-c3cncnc3)cc2c1 [Example 27] |  |  | 90% |  | 
35 | Cc1cccc(-c2ccc3nn(-c4cccnc4)cc3c2)n1 [Example 64] | 1.06 | 2.41 | 90% |  | 
36 | CSCC(C)C(=O)N(C)c1ccc2nn(-c3cnn(C)c3)cc2c1 (stereo not shown) [Example 105, N,2-Dimethyl-N-(2-(1-methyl-1H-pyrazol-4-yl)-2H-indazol-5-yl)-3-(methylthio) propanamide] |  |  |  |  | 90%
37 | Cc1ccc(NC(=O)c2ccc3nn(-c4cccnc4)cc3c2)cc1[S+]([O-])CC(F)(F)F (stereo not shown) [Example 94, N-{4-Methyl-3-[(2,2,2-trifluoroethyl)sulphinyl]phenyl}-2-(pyridin-3-yl)-2H-indazole-5-carboxamide] | 2.23 | 2.23 | 90% |  | 
38 | Cn1ccc(-c2ccc3nn(-c4cccnc4)cc3c2)n1 [Example 71] | 1.58 |  | 90% |  | 
39 | Fc1ccnc(-c2ccc3nn(-c4cccnc4)cc3c2)c1 [Example 101] | 2.04 | 2.21 | 90% |  | 
40 | Cc1cc(C)c(SCC(F)(F)F)cc1NC(=O)c1ccc2nn(-c3cccnc3)cc2c1 [Example 81, N-{2,4-Dimethyl-5-[(2,2,2-trifluoroethyl)sulphanyl]phenyl}-2-(pyridin-3-yl)-2H-indazole-5-carboxamide] | 3.15 | 3.12 | 90% |  | 
41 | CC(F)(F)CNC(=O)c1ccc2nn(-c3cncnc3)cc2c1 [Example 33] |  |  | 100% |  | 
42 | Clc1cccnc1-c1ccc2nn(-c3cccnc3)cc2c1 [Example 68] | 2.17 | 2.21 | 100% |  | 
43 | O=C(c1ccc2nn(-c3cccnc3)cc2c1)N1CCS(=O)(=O)CC1 [Example 93] | 0.87 | 1.03 |  |  | 
44 | CN(C(=O)CC[S+](C)[O-])c1ccc2nn(-c3cncc(F)c3)cc2c1 (stereo not shown) [Example 121] |  |  | 100% |  | 
45 | O=C(NCC(F)(F)F)c1ccc2nn(-c3cccnc3)cc2c1 [Example 3] |  |  | 100% |  | 
46 | CN(C(=O)CCS(C)(=O)=O)c1ccc2nn(-c3cccnc3)cc2c1 [Example 129] |  |  | 90% |  | 
47 | Cc1ccc(C(=O)N(C)c2ccc3nn(-c4cnn(C)c4)cc3c2)cc1[S+]([O-])CC(F)(F)F (stereo not shown) [Example 116] |  |  | 90% |  | 
48 | O=C(NCC(F)(F)F)c1ccc2nn(-c3cncnc3)cc2c1 [Example 26] |  |  |  | 90% | 
49 | Cc1cc(F)c(C(=O)N(C)c2ccc3nn(-c4cncc(F)c4)cc3c2)cc1[S+]([O-])CC(F)(F)F (stereo not shown) [Example 118] |  |  | 90% |  | 
50 | Cc1ccc(C(=O)N(C)c2ccc3nn(-c4cncc(F)c4)cc3c2)cc1[S+]([O-])CC(F)(F)F (stereo not shown) [Example 114] |  |  | 90% |  | 
51 | CCNC(=O)c1ccc2nn(-c3cncnc3)cc2c1 [Example 29] |  |  |  | 90% | 
52 | CN(C)C(=O)c1ccc2nn(-c3cccnc3)cc2c1 [Example 1] |  |  | 100% |  | 
53 | CSCC(C)C(=O)N(C)c1ccc2nn(-c3cncc(F)c3)cc2c1 (stereo not shown) [Example 109] |  |  | 100% |  | 
54 | CC(CS(C)(=O)=O)C(=O)N(C)c1ccc2nn(-c3cccnc3)cc2c1 (stereo not shown) [Example 130] |  |  | 90% |  | 
